Data from US20220079915A1, “IMMUNOSUPPRESSIVE PHARMACEUTICAL COMPOSITION AND APPLICATION THEREOF” (Shanghai Archeus Biotech Co., Ltd., priority 2018, published 2022).
Where two headings read alike, the source gives them in different places.

Experiments:
TNF-α = assay: LPS-induced TNF-α secretion in THP-1 cells, ELISA of culture supernatant; assay type: cell-based, human; details: for TNF-α level, % of the positive control / TNF-α, % of the positive control level: 100 ng/mL LPS; for inhibition at 10 µM: Homo sapiens, THP-1; for TNF-α treatment value, A: relative to control, 5 μM
Procedure: 1) Recoveried and expanded THP-1 cells in a T75 culture flask. The growth medium was 10 milliliters of 10% fetal bovine serun/RPMI1640 (already containing 2 mM glutamine)/1% double antibiotics in each flask. Observed the cells under an invert microscope, and, when the cells were in the logarithmic growth phase, started the following drug treatment experiments; 2) Cultured 2*10e5/mL THP-1 cells in a 96-well culture plate with 100 microliters of growth medium (10% fetal bovine serum/RPMI640/1% double antibiotics) per well, and added 100 ng/ml PMA to incubate for 24 hour; 3) Eluted the non-adherent cells once with 300 microliters of fresh growth medium of 10% fetal bovine serum/RPMI1640/1% double antibiotics; 4) Added 200 microliters of growth medium of 10% fetal bovine serum/RPMI1640/1% double antibiotics, with/without test compound, to pre-incubate the cells at 37° C. for 2 hours; 5) Then added 100 ng/mL lipopolysaccharide (LPS) and incubated at 37° C. for 4 hours: 6) Collected 50 microliters of cell culture supernatant for the detection of the levels of related cytokines by enzyme-linked immunoassay, or stored it in a refrigerator at minus 80 degrees Celsius for future detection; 1) Prepared 1× elution buffer for enzyme-linked immunoassay. Prepared it with ultrapure water: 10× elution buffer mother solution=9:1 in volume ratio for use; 2) Prepared the antibody cocktail for enzyme-linked immunoassay. Prepared it with the antibody diluent (provided by Ab221825):antibody 1:antibody 2=18:1:1 in volume ratio for use. Antibody 1 was a TNF-α capture antibody and Antibody 2 was a TNF-α detector antibody. They were all supplied by kit Ab221825; 3) Prepared a series of concentration gradient samples of TNF-α standard with ultrapure water for the plotting of reaction standard curve and determining the linear range of detection signal; 4) Added 50 microliters of cell culture supernatant/standard and 50 microliters of the above antibody cocktail to a 96-well plate used for enzymatic reaction, sealed it with a film, placed it on a horizontal shaker, and incubated at 400 rpm for 1 hour at room temperature to allow the antibody-antigen complex was fully bound and coupled at the bottom of the well plate; 5) Discarded the supernatant, eluted with 350 microliters of 1× elution buffer/well for 3 times. In the last elution, put the well plate upside down on an absorbent paper and sucked and washed it thoroughly; 6) Added 100 microliters of TMB substrate solution (supplied by Ab221825) to each well, placed them on a horizontal shaker and incubated in the dark at room temperature for 5 minutes at a speed of 400 rpm; 7) Added 100 microliters of reaction stop solution (provided by Ab221825), placed on a horizontal shaker and mix at 400 rpm for 1 minute; 8) Detected the absorbance at 450 nm with a microplate reader.

IL-17A = IL-17A secretion of mouse spleen Naïve CD4+ T cells induced to differentiate to Th17 cells by cytokines, ELISA; assay type: cell-based
Procedure: 1) Pre-coated the 96-well plate with 2 μg/mL anti-mouse CD3e and incubated overnight at 4 degrees Celsius: 2) Separated fresh spleens from adult C57BL/6 female mice (8-12 weeks old), ground and filtered through a […] nylon cell strainer to obtain a single cell suspension in pre-cooled DPBS; 3) Washed the spleen cells again with DPBS, and resuspended in RoboSep™ buffer at a density of 1×10^8/mL; 4) Separated primary CD4+ T cells with mouse primary CD4+ T cell isolation kit as required by the kit; 5) Resuspended the isolated CD4+ T cells in complete medium (RPMI 1640 medium+10% inactivated FBS+1% double antibiotics) at a density of 1×10^6/mL; 6) Washed the 96-well plate pre-coated with anti-mouse CD3e twice with DPBS, added 50 μL of cytokine cocktail, the composition and final concentration of which are shown in Table 6 below, and then added 50 μL of compound solution (the final concentration of DMSO was 0.1%). Added 100 μL of cell suspension to each well to allow the final cell number per well to be 1×10^5/100 μL; [table] 7) Cultured the cells for 7 days under the above conditions. The culture conditions were 37 degrees Celsius, 5% CO2 concentration; 8) After 7 days, added 1× stimulation cocktail (eBioscience 500X) to the culture medium for 4 hours, and then collected cell culture supernatant for detection with IL-17A enzyme-linked immunoassay kit; 9) Completed the detection of supernatant IL-17A concentration with mouse IL-17 DuoSet ELISA kit; 10) Read the OD450 nm absorbance value with a microplate reader, and generated the standard curve by using the 4-parameter logistic fitting (4-PL) method. 1) Diluted the capture antibody (provided in the kit) to a working concentration in PBS without carrier protein, that is, a 96-well plate can be coated with 100 microliters per well. Sealed and incubated the plate overnight at room temperature; 2) Aspirated the coating buffer of the well plate, and eluted with 400 microliters of eluent (provided in the kit) for three times, aspirating as much liquid as possible each time; 3) Added 300 microliters of diluent (provided in the kit) to each well, and equilibrated for 1 hour at room temperature; 4) Eluted the well plate as in the above step 2) to be ready for the addition of sample; ) Added 100 microliters of sample or standard to each well containing the added diluent, and sealed and incubated the well plate for 2 hours at room temperature; 6) Eluted the well plate as in the above step 2); 7) Added 100 microliters of detector antibody (provided in the kit) to each well, and sealed and incubated the well plate for 2 hours at room temperature. 8) Eluted the well plate as in the above step 2); 9) Added 100 microliters of Streptavidin-HRP working solution (provided in the kit) to each well, and sealed and incubated the well plate in dark for 20 minutes at room temperature. 10) Eluted the well plate as in the above step 2); 11) Added 100 microliters of reaction substrate solution (provided in the kit) to each well, and incubated at room temperature for 20 minutes, protected from light: 12) Added 50 microliters of stop solution (provided in the kit) to each well, and tapped the well plate to ensure that the liquid is evenly mixed; 13) Detected the optical density value of each well at […]. The values could be corrected by deducting the values at 540 nm or 570 nm.

C=C[C@@]1(C)CC(=O)C2(O)[C@@]3(C)C(O)CCC(C)(C)C3[C@H](OC(=O)CCN(C)C)[C@H](OC(C)=O)[C@@]2(C)O1.Cl (stereo partly shown) [6-[3-(dimethylamino)propionyl]forskolin hydrochloride]
TNF-α level, % of the positive control (TNF-α; 5 μM alone, FIG. 4): 33%
TNF-α, % of the positive control level (TNF-α; 5 μM alone, FIG. 6): 58%
reduction in TNF-α levels (TNF-α; 5 μM alone, FIG. 6): 42%
reduction in TNF-α level (TNF-α; 5 μM used alone, FIG. 4): 67%
TNF-α level, % of the positive control (TNF-α; 10 μM alone, FIG. 4): 27%
TNF-α, % of the positive control level (TNF-α; 10 μM alone, FIG. 6): 44%
reduction in TNF-α level (inhibitory effect) (TNF-α; 10 μM used alone, FIG. 4): 73%
inhibition at 10 µM (TNF-α; 10 μM alone, FIG. 6, read-out: reduction in TNF-α levels (inhibitory effect)): 56%
inhibition at 10 µM (TNF-α; 10 μM, 100 ng/ml LPS 4 hours, FIG. 1, read-out: inhibition of the TNF-α level of the positive control): ~75%
TNF-α treatment value, A (TNF-α; Table 3): 33%
TNF-α treatment value, A (TNF-α; Table 4): 58%
IL-17A level, % of the positive control (IL-17A; 0.5 μM alone): 88%
reduction in IL-17A levels (IL-17A; 0.5 μM used alone): 12%
IL-17A level, % of the positive control (IL-17A; 1 μM alone): 19%
IL-17A, % of the basic level (IL-17A; 1 μM compound alone, FIG. 10): 18%
inhibition at 10 µM (IL-17A; Mus musculus, CD4+ T, 168 h, 10 μM, 7 days cytokine induction, FIG. 8, read-out: inhibition of the positive control IL-17A level): ~97%
inhibition at 1 µM (IL-17A; Mus musculus, CD4+ T, 1 μM alone, FIG. 10, read-out: reduction in IL-17A levels (inhibitory effect)): 81%
IL-17A treatment value, A (IL-17A; Table 7, relative to control, 0.5 μM): 88%
IL17-A treatment value, A (IL-17A; Table 8, relative to control, 0.5 μM): 88%
